Results taken from patent US10828279B2, “Prophylactic and/or therapeutic drug for diabetic nephropathy” (HuBit genomix, Inc., priority 2018, dated 2020).

Legend:
[1] = test system: TGF-β1; assay: RT-quantitative PCR of TGF-β1 mRNA expression in AGE-stimulated cultured mouse mesangial cells; assay type: cell-based; settings: for TGF-β1 (%): relative value, AGE 300 μg/ml+Palovarotene 0.5 μM = 100%
Method: (§1) The glomeruli were isolated from four-week-old wild-type C57BL/6J mice according to the method of Davies M. et al. (Kidney Int. 1994; 45(2):320-7)^36 with necessary modifications and primary culture of the glomeruli was conducted in order to establish mouse mesangial cell strains. AGEs used for cell stimulation were prepared according to the method of Doi T. et al. (Proc, Natl. Acad. Sci. U.S.A. 1992; 89:2873-2877)^37 with necessary modifications. The cultured mouse mesangial cells were grown to confluence, subjected to serum starvation using Opti-MEM (Invitrogen). Then, the cells were treated with (1) no stimulation, (2) AGE 300 μg/ml; (3) AGE 300 μg/ml+palovarotene 0.5 μM; or (4) AGE 300 μg/ml+palovarotene 1 μM. Twenty-four hours after the treatment, RNA extraction was performed by AGPC method. RT-quantitative PCR was performed with the resultant RNA, followed by evaluation of mRNA expression levels by the comparative Ct method (ΔΔ Ct method).

[2] = test system: streptozocin-induced diabetic mice; assay: Histological evaluation of the kidney in STZ-induced diabetic mice on high fat diet; assay type: in vivo, mouse; settings: DM+Palo vs DM; palovarotene 60 μg/kg i.p. twice a week, 12 weeks
Method: Streptozocin (Wako) was administered to 12-15 week-old ICR mice (purchased from CLEA Japan) intraperitoneally (I.P.) for five consecutive days at 50 mg/kg per injection to thereby evoke diabetes. Four weeks after the STZ administration, mouse diet was changed to a high fat diet HFD60 (Oriental Yeast) and, at the same time, intraperitoneal administration of palovarotene at 60 μg/kg twice a week was started. Twelve weeks later, the mice were dissected, followed by histological evaluation.

[3] = test system: UUO mice; assay: Unilateral ureter obstruction (UUO) mouse renal tubulointerstitial fibrosis model, Sirius Red staining; assay type: in vivo; settings: UUO+Palo vs UUO; palovarotene 1 mg/kg i.p. for 6 days, day 7 after ureter ligation
Method: Unilateral ureter obstruction (UUO) model is a model in which renal interstitial fibrosis is induced by feeding for seven days under ureter ligation. Briefly, the kidney of a mouse is exposed extraperitoneally by a unilateral dorsal incision. Then, ureter ligation is performed at 2 to 3 spots at intervals of 1 mm with surgical suture, which leads to decreased renal blood flow and glomerular filtration rate. Further, macrophages infiltrate into the tubulointerstitium, apoptosis of tubular epithelial cells occurs, and increase of fibroblasts and extracellular matrix protein progresses in the interstitium, which leads to interstitial fibrosis. In this model, fibrosis is evoked in a short period of time and there is no complication of uremia since no toxic substance is used. Thus, this is an interstitial fibrosis model with high reproducibility. A UUO model was established using 10-12 week-old ICR mice (purchased from CLEA Japan). […] UUO group consists of mice which were kept for 7 days under ureter ligation to thereby induce renal interstitial fibrosis. Palovarotene group consists of mice which received intraperitoneal administration of palovarotene (1 mg/kg) for 6 consecutive days starting from one day after UUO treatment. Mice in each group were dissected 7 days after UUO treatment, followed by histological evaluation of the kidney by Sirius Red staining.

[4] = test system: Col4α1 (type IV collagen); assay: RT-quantitative PCR of Col4α1 (type IV collagen) mRNA expression in AGE-stimulated cultured mouse mesangial cells; assay type: cell-based; settings: for Col4α1 (%): relative value, AGE 300 μg/ml+Palovarotene 0.5 μM = 100%
Method: as §1

[5] = test system: BMP4; assay: RT-quantitative PCR of BMP4 mRNA expression in AGE-stimulated cultured mouse mesangial cells; assay type: cell-based; settings: for BMP4 (%): relative value, AGE 300 μg/ml+Palovarotene 0.5 μM = 100%
Method: as §1

[6] = AGE 300 μg/ml + compound 0.5 μM, 24 h
[7] = AGE 300 μg/ml + compound 1.0 μM, 24 h
[8] = Example 4, 0.5 and 1.0 μM, AGE 300 μg/ml, comparison with palovarotene

CC1(C)CCC(C)(C)c2cc(Cn3cccn3)c(/C=C/c3ccc(C(=O)O)cc3)cc21 [Palovarotene, 4-[(E)-2-[5,5,8,8-tetramethyl-3-(pyrazol-1-ylmethyl)-6,7-dihydronaphthalen-2-yl]ethenyl]benzoic acid]
TGF-β1 (%) [1, 6]: 100% | TGF-β1 (%) [1, 7]: 70% | TGF-β expression increased by AGE stimulation ([1]; AGE 300 μg/ml + palovarotene 0.5 or 1 μM, 24 h, FIG. 2A): strongly inhibited | inhibitory effect on TGF-01 expression (in words) [1, 8]: dose-dependent inhibitory effect | Smad1 activation (pSmad1) [2]: inhibition of Smd1 activation | WT1 expressed in the podocyte nuclei (WT1) [2]: inhibition of reduction of WT1 | expansion of the glomerular mesangial area (PAS staining) [2]: inhibition of expansion of the glomerular mesangial area | nephrin-expressing area in glomerular podocytes (Nephrin) [2]: inhibition of reduction of nephrin-expressing area | phosphorylation of Smad2/3 [2]: strongly inhibited | type IV collagen expression (Col4) [2]: reduction of type IV collagen expression | degree of staining of the tubulointerstitium with Sirius Red [3]: clearly lower than that in the kidney tissue of UUO mice | tubulointerstitial fibrosis [3]: markedly inhibits | Col4α1 (%) [4, 6]: 100% | Col4α1 (%) [4, 7]: 50% | inhibitory effect on Col4α1 (type IV collagen) expression (in words) [4, 8]: dose-dependent inhibitory effect | production of Col4α1 (type IV collagen) increased by AGE stimulation ([4]; palovarotene 0.5 μM, AGE 300 μg/ml, 24 h, FIG. 2C): completely inhibited | BMP4 (%) [5, 6]: 100% | BMP4 (%) [5, 7]: 60% | BMP4 expression increased by AGE stimulation ([5]; AGE 300 μg/ml + palovarotene 0.5 or 1 μM, 24 h, FIG. 2B): clearly inhibited by palovarotene in a dose dependent manner | inhibitory effect on BMP4 expression (in words) [5, 8]: dose-dependent inhibitory effect | inhibition of BMP4 expression increased by AGE stimulation ([5]; palovarotene 1 μM, AGE 300 μg/ml, 24 h, FIG. 2B): almost complete
